According to paper PMC11476629, “Exploring a Potential Optimization Route for Peptide Ligands of the Sam Domain from the Lipid Phosphatase Ship2” (International Journal of Molecular Sciences, 2024):
Non-standard residues stand in square brackets, D forms with d. Residues, ends and D or L forms follow the SMILES beside them. βAla = NCCC(=O)O

Columns and labels:
[1] = system: PC-3 cells; settings: 4 h, crystal violet
Protocol: (§1) Media and supplements were obtained from Thermo Fisher Scientific (Milan, Italy). PC-3 cells were cultured in the RPMI 1640 medium enriched with 10% fetal bovine serum (FBS) and 2 mM L-glutamine. NHDFs were cultured in the DMEM medium complemented with 2% FBS, 1 μg/mL hydrocortisone, 10 ng/mL human epidermal growth factor, 3 ng/mL basic fibroblast growth factor, and 10 μg/mL heparin. For the cytotoxicity assay 96-well flat-bottom microplates were used and 4 × 10^3 cancer cells and 5 × 10^3 NHDF cells were seeded in 50 μL of medium per well and incubated overnight to permit cell adhesion at 37 °C in a 5% CO2 humidified atmosphere. Following the removal of the culture medium, cells were incubated with 100 μL of their growth medium containing 50 and 100 μM TAT-PSscan255 for 4 h. TAT-PSscan255 was dissolved in water. The crystal violet assay was performed to assess cell viability. The amount of dye taken up was quantified with a plate reader (Multiskan Fc 10094, Thermo Fisher Scientific, Milan, Italy) at 595 nm. Data, reported as means ± SEM of three independent experiments carried out in quadruplicate, were presented as the percentage of proliferating cells compared to the control (vehicle-treated cells).

[2] = system: normal human dermal fibroblasts (NHDFs); settings: NHDF, 50 and 100 µM, 4 h, crystal violet; three experiments in quadruplicate
Protocol: as §1

[3] = system: EphA2 levels in PC-3 cells; assay: Western blot analysis of EphA2 levels; format: cell-based; settings: n = 3
Protocol: The levels of EphA2 were monitored in PC-3 cells through Western blot analysis to evaluate if the binding of the TAT-PSscan255 peptide to Ship2-Sam could avoid the inhibition of EphA2 endocytosis and degradation. For this purpose, PC-3 cells were treated with ephrinA1-Fc (1 µg/mL for 2 h) and TAT-PSscan255 (50 µM for 4 h), both alone and in combination (i.e., pre-treating with TAT-peptide 50 µM for 2 h followed by the addition of ephrinA1-Fc 1 µg/mL for an extra 2 h) (Figure 7b).
PC-3 cells were treated with TAT-PSscan255 (50 μM) for 4 h and ephrinA1-Fc (1 μg/mL) for 2 h, both alone and in combination. […] Lysates were centrifuged at 13,000 rpm for 30 min at 4 °C and the protein concentration in the supernatants was evaluated using the Bradford assay. […] Quantification was achieved through densitometric analysis with the ImageJ software (v.1.54g) (National Institutes of Health, Bethesda, MD, USA, https://imagej.org). Statistical significance regarding the comparison between treated and untreated cells was evaluated with one-way ANOVA using Dunnett’s post-test analysis. Statistical analysis was assessed with the OriginPro software v.2023 (OriginLab Corporation, Northampton, MA, USA).

Compound: CC[C@H](C)[C@H](NC(=O)[C@H](CCCNC(=N)N)NC(=O)[C@H](CCCCN)NC(=O)[C@H](CC(N)=O)NC(=O)[C@H](C)NC(=O)[C@H](CC(C)C)NC(=O)[C@H](Cc1ccccc1)NC(=O)[C@H](CCCCN)NC(=O)[C@H](Cc1ccc(O)cc1)NC(=O)[C@H](Cc1c[nH]c2ccccc12)NC(=O)[C@H](CCC(=O)O)NC(=O)[C@H](CCCNC(=N)N)NC(=O)[C@H](CCCCN)NC(=O)CNC(=O)CNC(=O)[C@H](CCC(N)=O)NC(=O)[C@@H]1CCCN1C(=O)[C@@H]1CCCN1C(=O)[C@H](CCCNC(=N)N)NC(=O)[C@H](CCCNC(=N)N)NC(=O)[C@H](CCCNC(=N)N)NC(=O)[C@H](CCC(N)=O)NC(=O)[C@H](CCCNC(=N)N)NC(=O)[C@H](CCCNC(=N)N)NC(=O)[C@H](CCCCN)NC(=O)[C@H](CCCCN)NC(=O)[C@H](CCCNC(=N)N)NC(=O)CNC(=O)CCNC(C)=O)C(=O)N[C@@H](C)C(=O)N[C@@H](Cc1ccc(O)cc1)C(N)=O [TAT-PSscan255] (Ac-[βAla]GRKKRRQRRRPPQGGKREWYKFLANKRIAY-NH2)
- Cytotoxicity towards PC-3 compared with NHDFs ([1]; 50 and 100 µM): increased cytotoxicity towards PC-3 with respect to NHDFs
- Cytotoxic effect (cell viability relative to untreated cells) ([1]; PC-3, 50 and 100 µM, three experiments in quadruplicate): increased cytotoxic effect as a function of concentration
- Cytotoxic effect (cell viability relative to untreated cells) [2]: increased cytotoxic effect as a function of concentration
- EphA2 levels with respect to untreated control ([3]; PC-3, TAT-PSscan255 alone, 50 µM for 4 h): a certain decrease in EphA2 levels
- EphA2 levels with respect to untreated control ([3]; PC-3, TAT-peptide 50 µM for 2 h, then ephrinA1-Fc 1 µg/mL added for an extra 2 h): a reduction in EphA2 levels like that observed for the ephrin ligand when used by itself
